Measurements taken from paper PMC7582725, “Suppression of hTAS2R16 Signaling by Umami Substances” (International Journal of Molecular Sciences, 2020).
Positions count from the first letter of the chain named. “And” between values parts separate entries of the source, which are not always exact repeats. Identical values can stand only once. Counter-ions that a name gives are not always drawn. Like-named read-outs stand apart in the source and are kept apart here. Each block holds one compound with its values, some of them ahead of it. Where a SMILES comes first, the peptide text is derived from it.

Assays:
[1] = target: T1, hTAS2R16 (Homo sapiens, UniProt Q9NYV7); assay: Cellular Ca2+ response, cell-based assay (Calcium-4, FlexStation III) in HEK293T cells co-expressing wild-type hTAS2R16 and G16αgust44; conditions: for synergistic effect with IMP on suppression of salicin response: 10 mM salicin, graded IMP below or at 10 mM; for mechanism of antagonism at hTAS2R16: from salicin concentration–response curves at graded antagonist concentrations
T1 construct: expressed in transfected cells; host or cells: HEK293T
T1 sequence (Q9NYV7 1-291): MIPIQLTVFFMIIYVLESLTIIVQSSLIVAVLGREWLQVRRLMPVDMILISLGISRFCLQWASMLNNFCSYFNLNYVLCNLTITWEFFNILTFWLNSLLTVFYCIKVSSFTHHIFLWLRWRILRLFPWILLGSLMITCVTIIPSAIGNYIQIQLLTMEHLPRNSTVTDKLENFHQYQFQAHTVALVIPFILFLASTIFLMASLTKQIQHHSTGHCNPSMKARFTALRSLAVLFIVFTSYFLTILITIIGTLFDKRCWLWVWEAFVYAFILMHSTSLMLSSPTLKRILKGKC
Procedure: (§1) HEK293T cells were purchased from American Type Culture Collection (ATCC; Manassas, VA, USA) and cultured as described previously. The plasmids hTAS2R16 and G16αgust44 were constructed as described previously. G16αgust44 and hTAS2R16 were cloned into a cytomegalovirus promoter-based vector and expressed constitutively. Point mutants of N96T and P44T on hTAS2R16 clone and DNA sequencings were performed by Macrogen (Geumcheon-gu, Seoul, Korea). The hTAS2R16 or point mutant expression plasmid was co-transfected with G16αgust44 expression plasmid (4:1) into HEK293T cells using Lipofectamine 2000 (Invitrogen, Carlsbad, CA, USA).
(§2) The umami substances-induced changes in the cytosolic Ca^2+ concentration were measured using a FlexStation III microplate reader (Molecular Devices, Sunnyvale, CA, USA). HEK293T cells transfected with hTAS2R16 were seeded onto 96-well black-wall CellBind surface plates (Corning, NY, USA) for 18–24 h before use. […] The cells were incubated in the dark for 30 min at 37 °C, and then for 15 min at 27 °C in assay buffer consisting of Calcium-4 (FLIPR Calcium 4 Assay Kit, Molecular Devices) and probenecid or the umami compounds. Following treatment, the fluorescence intensity (excitation, 486 nm; emission, 525 nm) of the cell was measured. The relative changes in cell Ca^2+ were plotted as ΔF/F0 on the y-axis, where ΔF is the change in Calcium-4 fluorescence intensity at each time point and F0 is the fluorescence intensity before treatment. The relative response induced by 10 mM salicin was assigned a value of 100.

[2] = target: T1, hTAS2R16; assay: Ca2+ response of hTAS2R16-expressing HEK293T cells to bitter ligands in absence and presence of umami substances (Figure 1; fura-2 F340/F380 imaging / cell-based assay); conditions: for inhibition of Ca2+ response to arbutin: 5 mM arbutin; for inhibition of Ca2+ response to arbutin / inhibition of Ca2+ response to phenyl β-D-glucopyranoside: MSG 80 mM, IMP 20 mM, L-theanine 80 mM; for inhibition of Ca2+ response to arbutin / reduction of intracellular Ca2+ influx evoked by salicin / inhibition of Ca2+ response to phenyl β-D-glucopyranoside: Glu-Glu 6 mM, Gly-Gly 6 mM; for reduction of intracellular Ca2+ influx evoked by salicin: 10 mM salicin, MSG 10 and 80 mM, IMP 10 and 20 mM, L-theanine 10 and 80 mM, probenecid 0.1 and 0.3 mM; for Ca2+ response of cells expressing TAS2R16 on stimulation with ligand: Figure 1D,E
Procedure: We first verified if non-peptide umami substances affect the downstream signaling mechanism, such as changes in intracellular Ca^2+ of the human bitter taste receptor. […] The increase in fluorescence intensity ratio (F340/F380) with 10 mM salicin was expressed as 100. […] In addition to salicin, hTAS2R16 also recognizes bitter sugars such as phenyl β-D-glucopyranoside and arbutin, a glycosylated hydroquinone extracted from the bearberry plant in the genus Arctostaphylos.
(A) Chemical structures of tested compounds. Summarized data (B) and representative traces (C) showing responses of HEK293T cells co-expressing hTAS2R16 and Gα16gust44 to 10 mM salicin in the absence and presence of umami substances in a cell-based assay. (D,E) Representative ratiometric images of fura-2-loaded hTAS2R16-expressing cells in response to the other ligands, 5 mM arbutin (D) or phenyl β-D-glucopyranoside (E), in the presence of umami substances. The data were normalized as percentages to the maximal signal obtained with the ligands. The color scale indicates the F340/F380 ratio. Scale bar: 11.04 μm. Data are presented as means ± standard error of the mean (SEM) of at least three separate experiments. * p < 0.05, ** p < 0.01, and *** p < 0.001 vs. the 0 mM sample group by Student’s t-test.
as §2, with “Following treatment, the fluorescence intensity (excitation, 486 nm; emission, 525 nm) of the cell was measured.” left out
Cells were seeded onto 96-well black-wall imaging plates (BD Falcon Labware) for 18–26 h prior to their use in an experiment. […] The cells were rinsed with the buffer, incubated in probenecid or sample for 30 min, and then treated with solution containing the ligand. The Fura-2AM-induced fluorescence intensity (excitation at 340 and 380 nm) was measured at emission wavelength of 510 nm using a computer-controlled filter changer (Lambda DG4; Sutter, San Rafael, CA, USA), an Andor Luca CCD camera (Andor Technology, Belfast, UK), and an inverted fluorescence microscope (IX-71; Olympus, Tokyo, Japan). Images were obtained at 3-s intervals and analyzed using MetaFluor software (Molecular Devices, Sunnyvale, CA, USA).

[3] = target: T2, hTAS2R16 P44T (Homo sapiens, UniProt Q9NYV7, P44T); assay: Cellular Ca2+ response, cell-based assay in HEK293T cells expressing probenecid-insensitive mutant hTAS2R16 P44T
T2 construct: expressed in transfected cells; host or cells: HEK293T
T2 sequence (Q9NYV7 1-291 P44T): T1 sequence (Q9NYV7 1-291) with P44T
Procedure: as §1, §2

[4] = test system: umami taste; assay: Human sensory evaluation of umami taste (literature); format: in vivo; conditions: from cited thresholds
[5] = test system: umami taste; conditions: cited from earlier work
[6] = target: T3, hTAS2R16 N96T (Homo sapiens, UniProt Q9NYV7, N96T); assay: Cellular Ca2+ response, cell-based assay in HEK293T cells expressing probenecid-insensitive mutant hTAS2R16 N96T
T3 construct: expressed in transfected cells; host or cells: HEK293T
T3 sequence (Q9NYV7 1-291 N96T): T1 sequence (Q9NYV7 1-291) with N96T
Procedure: as §1, §2

[7] = IC50 in the presence of 10 mM salicin, Table 2, + IMP 0 mM, means ± SEM
[8] = IC50 of umami substances in the presence of 10 mM salicin, Figure 2B, pretreatment with sample, fixed 10 mM salicin, means ± SEM
[9] = Table 3, pretreatment with sample 80 mM
[10] = Table 1, pretreatment with sample 10 mM
[11] = Table 1, pretreatment with sample 30 mM
[12] = Table 1, pretreatment with sample 80 mM
[13] = Table 1, pretreatment with sample 100 mM

- IC50 [1, 7]: 7250 ± 20 µM
- IC50 [1, 8]: 8620 ± 30 µM
Compound: N[C@@H](CCC(=O)O)C(=O)N[C@@H](CCC(=O)O)C(=O)O [Glu-Glu] (H-Glu-Glu-OH)

- inhibition of Ca2+ response to arbutin [2]: significantly inhibited
- reduction of intracellular Ca2+ influx evoked by salicin [2]: concentration-dependent reduction
- inhibition of Ca2+ response to phenyl β-D-glucopyranoside [2]: significantly inhibited
- Maximal Response of salicin, P44T [3, 9]: 0.56 ΔF/F0
- Maximal Response of salicin, N96T [6, 9]: 0.66 ΔF/F0
- IC50 [1, 7]: 77330 ± 50 µM
- IC50 [1, 8]: 62000 µM and 61700 µM
- Maximal Response of salicin [1, 10]: 0.53 ΔF/F0
- Maximal Response of salicin [1, 11]: 0.50 ΔF/F0
- Maximal Response of salicin [1, 12]: 0.43 ΔF/F0
- Maximal Response of salicin [1, 13]: 0.31 ΔF/F0
- Maximal Response of salicin, WT [1, 9]: 0.43 ΔF/F0
- mechanism of antagonism at hTAS2R16 [1]: partial insurmountable antagonists
- attenuation of salicin response by pretreatment, WT receptor ([1]; salicin 0.003–30 mM, probenecid 0.3 mM, L-theanine 80 mM): significantly attenuated
Compound: CCNC(=O)CC[C@H](N)C(=O)O [L-Theanine, γ-glutamylethylamide]
- attenuation of salicin response by pretreatment, P44T mutant ([3]; salicin 0.003–30 mM, probenecid 0.3 mM, MSG 80 mM, L-theanine 80 mM): not in cells expressing the two N96T and P44T mutant receptors
- detection threshold, times lower than that of MSG ([4]; L-theanine vs MSG): roughly 36 times
- detection threshold [5]: 25 mM
- attenuation of salicin response by pretreatment, N96T mutant ([6]; salicin 0.003–30 mM, probenecid 0.3 mM, Glu-Glu 6 mM, L-theanine 80 mM): not in cells expressing the two N96T and P44T mutant receptors
- synergistic effect with IMP on suppression of salicin response [1]: produce similar synergistic effects with IMP

Compound: N[C@@H](CCC(=O)O)C(=O)O [MSG, L-glutamic acid monosodium salt hydrate]
- inhibition of Ca2+ response to arbutin [2]: significantly inhibited
- reduction of intracellular Ca2+ influx evoked by salicin [2]: concentration-dependent reduction
- inhibition of Ca2+ response to phenyl β-D-glucopyranoside [2]: significantly inhibited
- Maximal Response of salicin, P44T [3, 9]: 0.57 ΔF/F0
- umami taste threshold, times lower than Glu-Glu ([4]; MSG vs Glu-Glu): around 10 times
- detection threshold [5]: 0.7 mM
- umami taste intensity (relative) ([5]; enhancing umami taste intensity, MSG = 1.0): 1.0
- umami taste threshold ([5]; human sensory evaluation studies): 30 mg%
- Maximal Response of salicin, N96T [6, 9]: 0.65 ΔF/F0
- synergistic effect with IMP on suppression of salicin response [1]: produce similar synergistic effects with IMP
- IC50 [1, 7]: 64670 ± 40 µM
- IC50 [1, 8]: 51000 µM and 51100 µM
- Maximal Response of salicin [1, 10]: 0.55 ΔF/F0
- Maximal Response of salicin [1, 11]: 0.54 ΔF/F0
- Maximal Response of salicin [1, 12]: 0.49 ΔF/F0
- Maximal Response of salicin [1, 13]: 0.47 ΔF/F0
- Maximal Response of salicin, WT [1, 9]: 0.49 ΔF/F0
- mechanism of antagonism at hTAS2R16 [1]: surmountable antagonist
- increase of the EC50 of salicin ([1]; sample at highest concentration, 100 mM): 8.5 fold

- EC50 ([3]; Table 3, sample 0 mM, read-out: EC50 of salicin, P44T): 690 µM and 750 µM and 640 µM and 620 µM and 680 µM
- intracellular Ca2+ response induced by ligand, P44T mutant ([3]; salicin 0.003–30 mM): induced intracellular Ca^2+ response
- intracellular Ca2+ response induced by ligand, N96T mutant ([6]; salicin 0.003–30 mM): induced intracellular Ca^2+ response
- Maximal Response of salicin ([1]; Table 1, salicin 0–30 mM, sample 0 mM): 0.51 ΔF/F0 and 0.54 ΔF/F0 and 0.56 ΔF/F0
- Maximal Response of salicin, WT ([1]; Table 3, sample 0 mM): 0.54 ΔF/F0 and 0.56 ΔF/F0 and 0.51 ΔF/F0
- EC50 ([1]; Table 3, sample 0 mM, read-out: EC50 of salicin, WT): 960 µM and 900 µM and 1040 µM and 1070 µM
- intracellular Ca2+ response induced by ligand, WT receptor ([1]; salicin 0.003–30 mM): induced intracellular Ca^2+ response
Compound: OCc1ccccc1O[C@@H]1O[C@H](CO)[C@@H](O)[C@H](O)[C@H]1O [Salicin]
- Maximal Response of salicin, P44T ([3]; Table 3, sample 0 mM): 0.61 ΔF/F0 and 0.59 ΔF/F0 and 0.56 ΔF/F0 and 0.62 ΔF/F0
- Maximal Response of salicin, N96T ([6]; Table 3, sample 0 mM): 0.66 ΔF/F0 and 0.63 ΔF/F0 and 0.68 ΔF/F0 and 0.61 ΔF/F0
- EC50 ([6]; Table 3, sample 0 mM, read-out: EC50 of salicin, N96T): 200 µM (2×) and 230 µM and 250 µM and 180 µM
- EC50 ([1]; Table 1, salicin 0–30 mM, sample 0 mM, means ± SEM, read-out: EC50 of salicin): 1.04 mM (2×) and 920 µM and 890 µM and 900 µM

- Ca2+ response of cells expressing TAS2R16 on stimulation with ligand [2]: increase in Ca^2+
Compound: OC[C@H]1O[C@@H](Oc2ccc(O)cc2)[C@H](O)[C@@H](O)[C@@H]1O [arbutin]

- Ca2+ response of cells expressing TAS2R16 on stimulation with ligand [2]: increase in Ca^2+
Compound: OC[C@H]1O[C@@H](Oc2ccccc2)[C@H](O)[C@@H](O)[C@@H]1O [phenyl β-D-glucopyranoside]

- inhibition of Ca2+ response to arbutin [2]: not
- reduction of intracellular Ca2+ influx evoked by salicin [2]: not
- inhibition of Ca2+ response to phenyl β-D-glucopyranoside [2]: not
Compound: Gly-Gly
